# Values of other authors as cited in patent publication US7052717B2, “Storage stable thyroxine active drug formulations and methods for their production” (Mylan Pharmaceuticals Inc., priority 2001, dated 2006).
# Conditions: high humidity, light or high temperature; Won, Pharm. Res. 9(1):131-137, 1992
compound,measurement,value
"N[C@@H](Cc1cc(I)c(Oc2cc(I)c(O)c(I)c2)c(I)c1)C(=O)O [Levothyroxine sodium, levothyroxine sodium]",stability of drug substance,"quite unstable, hygroscopic and degrades rapidly when subjected to high humidity, light or high temperature"
